Assay results taken from publication PMC8151276, “An Integrated Approach toward NanoBRET Tracers for Analysis of GPCR Ligand Engagement” (Molecules, 2021).

Assays:
VIPR1 = biological target: T1, VIPR1 (Homo sapiens, UniProt P32241); test: NanoBRET screen HiBiT-VIPR1 in HEK293; format: binding
T1 construct: purchased Promega (in-house HiBiT-GPCR construct library, NanoBRET)
T1 sequence (P32241 31-457): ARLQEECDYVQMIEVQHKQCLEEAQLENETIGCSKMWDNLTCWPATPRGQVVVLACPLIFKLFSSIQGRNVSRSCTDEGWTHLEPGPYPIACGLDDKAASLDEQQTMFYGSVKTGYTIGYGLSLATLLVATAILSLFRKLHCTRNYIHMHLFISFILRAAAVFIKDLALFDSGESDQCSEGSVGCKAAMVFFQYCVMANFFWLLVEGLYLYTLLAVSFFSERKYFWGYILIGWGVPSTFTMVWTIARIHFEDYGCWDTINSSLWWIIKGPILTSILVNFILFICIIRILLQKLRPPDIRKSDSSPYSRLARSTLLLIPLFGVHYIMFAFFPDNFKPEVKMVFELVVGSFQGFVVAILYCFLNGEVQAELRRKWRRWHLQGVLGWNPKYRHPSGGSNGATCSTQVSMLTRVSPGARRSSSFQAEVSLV
Method: (§1) Each tracer candidate was screened across the entire library of HiBiT-GPCR constructs using NanoBRET as the detection modality. As depicted in Figure 4A, the specificity of interactions was evaluated through decrease in BRET due to competitive displacement of a bound tracer by excess parental compound. Each tracer was analyzed for binding to each HiBiT-GPCR fusion in the absence and in the presence of competing parental compound. Briefly, HEK293 cells were transfected with HiBiT-GPCR constructs diluted into promoterless DNA to reduce expression and maximize translocation to the cell surface. Each tracer candidate was then screened at concentrations of 1 μM and 0.1 μM across cells expressing these fusions. Cells were treated for 1.5 h with tracer either alone or in the presence of 20 μM competing parental compound (i.e., control). BRET was measured upon addition of purified LgBiT and subsequent complementation with HiBiT genetically fused to a GPCR. The specificity of interactions was assessed through a decrease in BRET signal due to competitive displacement of the bound tracer. To further gauge the robustness of these interactions, the fold response over the control (i.e., BRETtracer/BRETcontrol) was calculated. We chose a 1.5-fold response, which translates to ≥7-fold signal over noise as the minimal threshold required to score an interaction as positive. […]. Below we highlight the screening results obtained for our exemplary fluorescent tracers based on Clozapine, Amitriptyline and AZD1283.
(§2) HiBiT-GPCR DNA constructs were diluted in 10 mM Tris pH 8 to a final concentration of 0.01 μg/μL, arrayed in 96-well plates and stored at −20 °C. For transfection, HEK293 cells were suspended in Opti-MEM (without phenol red) supplemented with 2% fetal bovine serum (Seradigm) and 100 units/mL penicillin–streptomycin (Gibco) at a final concentration of 220,000 cells/mL and dispensed into white 96-well plates at 90 μL/well. Subsequent transfections and screens were carried using an Agilent Bravo Automated Liquid Handling Platform. First, the 96-well HiBiT DNA arrays were diluted 25-fold in Opti-MEM (without serum or phenol red) to a final concentration of 0.0004 μg/μL and 20 μL of the diluted DNAs were transferred into new 96-well plates. Next, promoterless carrier DNA (1 μg/μL) was diluted 25-fold (0.04 μg/μL) and then dispensed into the diluted arrays at 20 μL/well. Following brief mixing, Viafect transfection reagent (Promega) diluted 16-fold into Opti-MEM was dispensed into the plates at 40 μL/well. After mixing by pipetting, plates were incubated for 10 min on the pipetting station deck. The DNA-transfection reagent complexes were then added to plates containing cells. To facilitate the screen, 10 μL of DNA-transfection reagent complexes were added in duplicates to the top 4 and bottom 4 rows, resulting in two identical 48-well arrays per plate. Plates with transfected cells were incubated for 18–20 h at 37 °C/5% CO2. A screen of each tracer across the entire library using two different concentrations requires duplicate plates of transfected cells. Depending on the number of tracers being screened, transfections can be scaled up using the same ratios. The next day, for each tracer, four 20× screening solutions in tracer dilution buffer (Promega) were prepared: two duplicates at final concentration of 20 μM and two duplicates at a final concentration of 2 μM. A competing unmodified compound was added to one of each duplicate at a final concentration of 400 μM. The four resulting solutions were diluted 4-fold in Opti-MEM without serum or phenol red to generate 5× solutions (5 µM and 0.5 µM tracer +/− 100 μM competing compound). To screen the library, a BioTek MultiFlo FX liquid dispenser was used to dispense 22.5 µL of tracer solution to the top 4 rows and 22.5 µL tracer + competing compound solution to the 4 bottom rows. Plates were briefly mixed on an orbital shaker and incubated for 1.5 h at room temperature. […]

FPR2 = biological target: T2, FPR2 (Homo sapiens, UniProt P25090); test: NanoBRET screen HiBiT-FPR2 in HEK293; format: binding
T2 construct: purchased Promega (in-house HiBiT-GPCR construct library, NanoBRET)
T2 sequence (P25090 1-351): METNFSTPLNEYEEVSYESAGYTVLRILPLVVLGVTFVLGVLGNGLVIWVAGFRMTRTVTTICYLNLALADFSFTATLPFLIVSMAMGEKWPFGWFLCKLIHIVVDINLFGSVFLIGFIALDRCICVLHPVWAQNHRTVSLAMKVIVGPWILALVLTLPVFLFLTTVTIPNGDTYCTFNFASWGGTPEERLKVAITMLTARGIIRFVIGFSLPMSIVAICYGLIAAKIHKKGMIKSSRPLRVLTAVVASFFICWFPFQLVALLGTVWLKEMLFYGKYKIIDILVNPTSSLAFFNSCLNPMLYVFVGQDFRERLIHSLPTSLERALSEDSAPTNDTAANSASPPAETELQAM
Method: as §1, §2

| SMILES | NanoBRET Fold Response (VIPR1; VIPR1, tracer 0.1μM) | NanoBRET Fold Response (VIPR1; VIPR1, tracer 1μM) | NanoBRET Fold Response (FPR2; FPR2, tracer 0.1μM) | NanoBRET Fold Response (FPR2; FPR2, tracer 1μM) | other results |
| --- | --- | --- | --- | --- | --- |
| COc1ccccc1N1CCN(CCCCN2C(=O)c3ccc(CNC(=O)CCOCCOCCOCCOCCNC(=O)CCc4ccc5n4[B-](F)(F)[N+]4=C(c6ccc[nH]6)C=CC4=C5)cc3C2=O)CC1 [NAN-190-2-NB590] | 1.00 | 1.02 | 0.56 | 1.20 | – |
| O=C(CCOCCOCCOCCOCCNC(=O)CCc1ccc2n1[B-](F)(F)[N+]1=C(c3ccc[nH]3)C=CC1=C2)NCCCN1CCN(C2=Nc3ccccc3Oc3ccc(Cl)cc32)CC1 [Loxapine-a-2-NB590] | 0.94 | 1.05 | 0.81 | 0.85 | – |
| CCCn1c(=O)c2[nH]c(-c3ccc(OCC(=O)NCCNC(=O)CCOCCNC(=O)c4ccc(CNC(=O)CCc5ccc6n5[B-](F)(F)[N+]5=C(c7ccc[nH]7)C=CC5=C6)cc4)cc3)nc2n(CCC)c1=O [XAC-3-NB590] | 1.03 | 0.99 | 0.89 | 0.95 | – |
| CN(C)CCC=C1c2ccccc2CCc2ccc(C(=O)NCCNC(=O)CCOCCOCCOCCOCCNC(=O)CCc3ccc4n3[B-](F)(F)[N+]3=C(c5ccc[nH]5)C=CC3=C4)cc21 [Amitriptyline-a-2-NB590] | – | – | – | – | NanoBRET Fold Response (VIPR1; tracer at 0.1μM): 0.95; NanoBRET Fold Response (VIPR1; tracer at 1μM): 1.07; NanoBRET Fold Response (FPR2; tracer at 0.1μM): 0.96; NanoBRET Fold Response (FPR2; tracer at 1μM): 1.05 |
| CCOC(=O)c1cc(C#N)c(N2CCC(C(=O)NS(=O)(=O)Cc3ccccc3/C=C/C(=O)NCCNC(=O)CCc3ccc4n3[B-](F)(F)[N+]3=C(c5ccc[nH]5)C=CC3=C4)CC2)nc1C [AZD1283-1-NB590] | – | – | – | – | NanoBRET Fold Response (VIPR1; VIPR1, 0.1μM): 0.99; NanoBRET Fold Response (VIPR1; VIPR1, 1μM): 1.02; NanoBRET Fold Response (FPR2; FPR2, 0.1μM): 0.99; NanoBRET Fold Response (FPR2; FPR2, 1μM): 1.04 |
